# Where no end group is shown, it is not given here.
# How the values were obtained:
# [1] = Stability in human blood plasma; assay type: in vitro ADME; conditions: 50 μg/mL; for Peptide found after incubation in human blood plasma: 12 h at 37 °C, extraction, reverse phase HPLC at 230 nm, ESI-MS; for Recovery after interaction with human plasma, first few minutes of dilution: extracted after the first few minutes of dilution, reverse phase HPLC
# Method: (§1) The four synthetic peptides were subjected to incubation in human blood plasma or in the supernatant of S. aureus and P. aeruginosa growth. The AMPs were diluted in human blood plasma or in the supernatant of bacterial growth (50 μg/mL) and incubated at 37 °C for 12 h. After peptide extraction, the AMPs were separated by reverse phase HPLC using a C18 column (Vydac 218 TP54, Grace Co.) and a linear gradient of acetonitrile in 0.1% aqueous TFA from 0 to 60% in 60 min at a flow rate of 1 mL/min. Effluent absorbance was monitored at 230 nm. Peptide fractions were dried under vacuum, resuspended and analyzed by ESI-MS to confirm their molecular masses.
# [2] = Stability in supernatant of S. aureus growth; assay type: in vitro ADME, Staphylococcus aureus; conditions: 50 μg/mL, 12 h at 37 °C, extraction, reverse phase HPLC at 230 nm
# Method: as §1
# [3] = test system: Staphylococcus aureus ATCC 25923; assay: microbe, parasite or virus in culture; assay type: cell-based; conditions: broth microdilution (CLSI), Mueller-Hinton broth, 18 h at 37 °C, A625nm; peptides n = 8
# Method: (§2) It was determined using the broth microdilution assay in accordance with the procedures from the Clinical and Laboratory Standards Institute. For broth microdilution assays, pathogenic bacteria, such as Escherichia coli ATCC 25922, Staphylococcus aureus ATCC 25923, Pseudomonas aeruginosa ATCC 27853 and Klebsiella pneumoniae ST258, were cultured in Mueller-Hinton broth (MHB) at 37 °C until an end point between of 0.08 and 0.13 units of absorbance at 625 nm and diluted 1:100 in MHB (ca. […]). Fifty microliters of this bacterial suspension was dispensed into each well of a 96-well microtiter Costar® culture plates (Sigma Aldrich) having 50 µL of MHB containing a proper concentration of pure AMPs, antibiotics or the mixture of either of the AMPs with either of the antibiotics used. Dilutions of peptides and antibiotics were made manually with two-fold dilutions.
# (§3) E. coli, S. aureus, P. aeruginosa and K. pneumoniae were grown in the presence of each of the four AMPs, and in the presence of each of the eight commercial antibiotics, which were Levofloxacin, Trimethoprim, Sulfamethoxazole, Azithromycin, Amoxicillin, Ceftriaxone, Gentamicin and Vancomycin, and in combinations of AMPs and the antibiotics. That is, the antimicrobial capacity of each AMP (50, 25, 12.5 and 6.2 µg/ mL) in combination with each antibiotic agent (50, 25, 12.5, 3.2, 1.6 and 0 µg/ mL) was measured as described above. For evaluation of the effect of the mixtures, the fractional inhibitory concentration (FIC) was calculated for each antibiotic in each combination. The following formulas were used to calculate the FIC index: FIC of AMP = MIC of AMP in combination with Antibiotic/MIC of AMP alone; FIC of Antibiotic = MIC of Antibiotic in combination with AMP/MIC of Antibiotic alone, and FIC index = FIC of AMP + FIC of Antibiotic. Synergy was defined as an FIC index of <0.5. Additive was defined as an FIC index of >0.5 but of <4, and finally antagonism was defined as an FIC index of >4.
# [4] = test system: Pseudomonas aeruginosa ATCC 27853; assay: microbe, parasite or virus in culture; assay type: cell-based; conditions: broth microdilution (CLSI), Mueller-Hinton broth, 18 h at 37 °C, A625nm; peptides n = 8
# Method: as §2, §3
# [5] = Stability in supernatant of P. aeruginosa growth; assay type: in vitro ADME, Pseudomonas aeruginosa; conditions: 50 μg/mL, 12 h at 37 °C, extraction, reverse phase HPLC at 230 nm
# Method: as §1
# [6] = test system: Klebsiella pneumoniae ST258; assay: microbe, parasite or virus in culture; assay type: cell-based; conditions: for Minimal Inhibitory Concentration, K. pneumoniae: broth microdilution (CLSI), Mueller-Hinton broth, 18 h at 37 °C, A625nm, peptides n = 8
# Method: as §2
# as §3, with “That” for “E. coli, S. aureus, P. aeruginosa and K. pneumoniae were grown in the presence of each of the four AMPs, and in the presence of each of the eight commercial antibiotics, which were Levofloxacin, Trimethoprim, Sulfamethoxazole, Azithromycin, Amoxicillin, Ceftriaxone, Gentamicin and Vancomycin, and in combinations of AMPs and the antibiotics. That”
# [7] = test system: Escherichia coli ATCC 25922; assay: microbe, parasite or virus in culture; assay type: cell-based; conditions: broth microdilution (CLSI), Mueller-Hinton broth, 18 h at 37 °C, A625nm; peptides n = 8
# Method: as §2, with “dilutions. […]” for “dilutions.”
# [8] = cited from earlier work
# Excerpt: Concerning AMPs, several physicochemical characteristics have been associated with the biological activity of them. Those that are relevant include hydrophobicity, the helical hydrophobic moment, as well as the size and the net charge of the peptide. However, no particular value relating to any of these characteristics was solely sufficient to correlate with the antimicrobial activity of the AMPs tested. In this case, however, the larger peptides FA1 and Pin2[G] were the AMPs that manifested optimum biological performance. Nevertheless, a fine balance in terms of physicochemical pr ...
# [9] = Stability in saline buffer (PBS); assay type: physicochemical; conditions: 20 μg peptide in PBS pH 7.4, 37 °C, 7 days; height of peptide peak in reverse phase HPLC
# Method: The stability of the four synthetic peptides (20 μg) was measured in phosphate buffered saline (PBS) that consisted of NaCl (137 mM), KCl (2.7 mM), Na2HPO4 (10 mM) and KH2PO4 (2 mM) at 37 °C for 7 days (pH 7.4). The stability of peptides in PBS was monitored measuring the height of the peptide peak when separated using reverse phase HPLC under the separation conditions mentioned above.
Sequence,Peptide found after incubation in human blood plasma [1],"Recovery after interaction with human plasma, first few minutes of dilution [1]",Stability in supernatants of S. aureus [2],"Minimal Inhibitory Concentration, S. aureus [3] [µg/mL]","Minimal Inhibitory Concentration, P. aureginosa [4] [µg/mL]",Stability in supernatants of P. aeruginosa [5],"Minimal Inhibitory Concentration, K. pneumoniae [6] [µg/mL]","Minimal Inhibitory Concentration, E. coli [7] [µg/mL]",hemolytic activity [8] [µM],Stability in saline buffer [9],"Peptide (MIC) ([6]; peptide alone against K. pneumoniae, based on Figure 2) [µg/mL]"
GILKTIKSIASKLKRKAK [P18K],neither was P18K obtained,none,probably sequestered or cleaved,>50,>50,probably sequestered or cleaved,>50,>50,923,,
GILKTIKSIASKVANTVQKLKRKAKNAV [FA1],not found,none,only a small amount,>50,25,not found,>50,12.5,665,less stable,>50
